Data taken from patent US20230142274A1 (SIMCERE PHARMACEUTICAL CO., LTD., priority 2020, published 2023).

Legend:
CD-1 mouse plasma = test: Plasma protein binding rate assay (equilibrium dialysis); assay type: in vitro ADME; conditions: compound 1 μM, equilibrium dialysis 6 hours at 37° C.
Method: 1. CD-1 mouse plasma (BioIVT)
1. Formulation of a buffer solution containing 100 mM sodium phosphate and 150 mM NaCl: An alkaline solution containing Na2HPO4 (14.2 g/L) and NaCl (8.77 g/L) was formulated with ultrapure water. An acidic solution containing NaH2PO4 (12.0 g/L) and NaCl (8.77 g/L) was formulated with ultrapure water. The alkaline solution was titrated with the acidic solution until the pH value was 7.4, thus formulating the buffer solution containing 100 mM sodium phosphate and 150 mM NaCl.
2. Preparation of dialysis membrane: The dialysis membrane was immersed in ultrapure water for 60 minutes to separate the membrane into two pieces, then immersed in 20% ethanol for 20 minutes, and finally immersed in a buffer for dialysis for 20 minutes.
3. Preparation of plasma: Frozen plasma was thawed rapidly at room temperature. Thereafter, the plasma was centrifuged at 3220 g for 10 minutes at 4° C. to remove clots, and the supernatant was collected into a new centrifuge tube. The pH values of plasma were measured and recorded. The plasma with a pH value of 7 to 8 was used.
4. Formulation of compound-containing plasma samples: A 10 mM stock solution of the compound of the present disclosure or the positive control compound was diluted with DMSO to obtain a 200 μM working solution. 3 μl of the 200 μM working solution of the compound was added into 597 μl of mouse plasma to obtain a plasma sample with a final concentration of 1 μM.
5. Steps of equilibrium dialysis: The dialysis device was assembled according to the operating instructions. 120 μL of a plasma sample containing 1 μM compound was added on one side of the dialysis membrane, and an equal volume of dialysate (phosphate buffer solution) was added on the other side. Duplicate samples were set in the experiment. The dialysis plate was sealed and placed in an incubation device where the samples were incubated at 37° C. in an atmosphere containing 5% CO2 for 6 hours with a rotational speed of about 100 rpm. After the incubation was complete, the sealing membrane was removed. 50 μl of samples were respectively aspirated from the buffer solution side and the plasma side of each well and transferred into different wells of a new plate. 50 μl of blank plasma was added into the sample obtained from the phosphate buffer solution side, and an equal volume of blank phosphate buffer solution was added into the plasma sample, followed by the addition of 300 μl of acetonitrile containing the internal standard to precipitate protein. The sample was vortexed for 5 minutes and centrifuged at 3220 g for 30 minutes at 4° C. 100 μl of the supernatant was aspirated and transferred to the sample plate, mixed well with 100 μL of ultrapure water, and used for LC-MS/MS analysis.
The peak areas of the compounds on the buffer solution side and the plasma side were determined. The formula for calculating the plasma protein binding rate of the compound was as follows:
% Free rate=(the ratio of the peak area of the compound to the peak area of the internal standard on the buffer solution side/the ratio of the peak area of the compound to the peak area of the internal standard on the plasma side)×100
% Binding rate=100−% free rate

[1] = Metabolic stability in liver microsomes (human); assay type: in vitro ADME; conditions: pH 7.4; Human being liver microsomes 0.5 mg/mL, compound 1 μM, NADPH 1 mM, 37° C.
Method: 1. Source of liver microsomes: human liver microsomes (Corning 452117), CD-1 mouse liver microsomes (XENOTECH M1000)
1. Formulation of 100 mM phosphate buffer solution (PBS): 7.098 g of Na2HPO4 was weighed and ultrasonically dissolved in 500 mL of pure water to form Solution A. 3.400 g of KH2PO4 was weighed and ultrasonically dissolved in 250 mL of pure water to form Solution B. Solution A was placed in a stirrer and Solution B was slowly added until the pH value reached 7.4, thus formulating 100 mM PBS buffer solution.
The reaction system was formulated according to Table 3 below.
3. The reaction system was placed in a water bath at 37° C. and pre-incubated for 10 minutes. 40 μL of 10 mM NADPH solution (NADPH was dissolved in 100 mM phosphate buffer solution) was added into the reaction system, and the final concentration of NADPH was 1 mM. 40 μL of Phosphate buffer solution was used instead of the NADPH solution as a negative control. The negative control was used to rule out the influence caused by the chemical stability of the compounds per se.
4. The reaction system was added with 4 μL of 100 μM the compound of the present disclosure and Verapamil (the positive control compound) (DMSO as the vehicle), so that the reaction was initiated. The final concentration of the compound was 1 μM.
5. At 0.5, 15, 30, 45 and 60 minutes, after being well mixed in a vortex oscillator, 50 μL of the incubated samples were taken out respectively, and the reaction was terminated with ice acetonitrile (4-fold) containing an internal standard. The samples were centrifuged at 3220 g for 45 minutes. After the centrifugation, 90 μL of the supernatants were transferred to a sample plate and mixed well with 90 μL of ultrapure water for LC-MS/MS analysis.
All data were calculated by Microsoft Excel software. Peak areas were determined from the extracted ion chromatograms. The in-vitro half-life (t1/2) of the parent drug was determined by the linear fitting of the natural logarithm of the elimination percentage of the parent drug versus time.
The in-vitro half-life (t1/2) was calculated from the slope: […]

- % Binding Rate (CD-1 mouse plasma): 98%
- half-life at 1 μM [1]: > 8.33 h
SMILES: Cc1cc(Nc2ccc(-c3cnc([C@H]4CC[C@H](NC(=O)OC(C)C)CC4)s3)c(P3(=O)CCC3)c2)n[nH]1 [Example 103, isopropyl trans-(4-(5-(4-((5-methyl-1H-pyrazol-3-yl)amino)-2-(1-oxophosphetan-1-yl)phenyl)thiazol-2-yl)cyclohexyl)carbamate]
